In patent US6770596B1, “Fused tricyclic compounds, process for their preparation, and herbicidal compositions containing them” (Ishihara Sangyo Kaisha Ltd., priority 2002, dated 2004):

Key:
Assay type in all cases: in vivo
[1] = tested on: barnyardgrass (Echinachloa crus-galli, ECC); assay: Pre-emerge test, barnyardgrass; conditions: 250 g ai/ha, 14 days after application, rating scale 0-100 (0 no damage, 100 complete death)
Source text: (§1) A standard greenhouse herbicide activity screening system was used to evaluate the herbicidal efficacy and crop safety of these test compounds. Seven broadleaf weed species including redroot pigweed (Amaranthus retroflexus, AMR), velvetleaf (Abutilon theophrasti, ABT), sicklepod (Cassia obtusifolia, CAO), ivyleaf morningglory (Ipomoea hederacea, IPH), lambsquarters (Chenopodium album, CHA), common ragweed (Ambrosia artemisiifolia L., AML), and cocklebur (Xanthium strumariunt, XAS) were used as test species. Four grass weed species including green foxtail (Setaria viridis, SEV), barnyardgrass (Echinachloa crus-galli, ECC), johnsongrass (Sorghum halepense, SOH), and large crabgrass (Digitaria sanguinalis, DIS) were also used. In addition, four crop species, field corn (Zea mays L., var. Dekalb 535, CORN), soybean (Glycine max L., var. Pella 86, SOY), upland rice (Oryza sp., var.Tebonnet, RICE), and wheat (Triticum aestivum) were included all plants were grown in 10 cm square plastic pots which were filled with a sandy loam soil mix.
(§2) For pre-emerge tests, seeds were planted one day prior to application of the test compounds. All test compounds were dissolved in acetone and applied to the test pots in a volume of 187 l/ha. Test materials were applied at rates ranging from 8 g ai/ha to 1000 g ai/ha using a track sprayer equipped with a TJ8001E even flow flat fan spray nozzle. This application simulates a typical commercial field herbicide application.
(§3) At 14 days after application of the test materials, phytotoxicity ratings were recorded. A rating scale of 0-100 was used for both pre and post emerge tests as previously described in Research Methods in Weed Science, 2nd edition, B, Truelove, Ed., Southern Weed Science Society, Auburn University, Auburn, Ala., 1977. Briefly, “0” corresponds to no damage and “100” corresponds to complete death of all plants in the test unit. This scale was used both to determine efficacy against weed species and damage to crop species. Herbicide activity data for various compounds of this invention, which are shown by compound No. in Tables 1-3, are shown in Tables 5 and 6.

[2] = tested on: johnsongrass (Sorghum halepense, SOH); assay: Pre-emerge test, johnsongrass; conditions: 250 g ai/ha, 14 days after application, rating scale 0-100 (0 no damage, 100 complete death)
Source text: as §1, §2, §3

[3] = tested on: large crabgrass (Digitaria sanguinalis, DIS); assay: Pre-emerge test, large crabgrass; conditions: 250 g ai/ha, 14 days after application, rating scale 0-100 (0 no damage, 100 complete death)
Source text: as §1, §2, §3

[4] = tested on: redroot pigweed (Amaranthus retroflexus, AMR); assay: Pre-emerge test, redroot pigweed; conditions: 250 g ai/ha, 14 days after application, rating scale 0-100 (0 no damage, 100 complete death)
Source text: as §1, §2, §3

[5] = tested on: common ragweed (Ambrosia artemisiifolia L., AML); assay: Post-emerge test, common ragweed; conditions: 250 g ai/ha, 14 days after application, rating scale 0-100 (0 no damage, 100 complete death)
Source text: as §1, §2
(§4) For post-emerge tests, seeds were planted 8-21 days prior to the test to allow emergence and good foliage development prior to application of the test substances. At the time of the post-emerge application, plants of all species were usually at the 2-3 leaf stage of development. In the postemerge test, a commercial non-ionic surfactant was also included (0.25% v/v) to enhance wetting of the leaf surfaces of target plants.
as §3

[6] = tested on: sicklepod (Cassia obtusifolia, CAO); assay: Pre-emerge test, sicklepod; conditions: 250 g ai/ha, 14 days after application, rating scale 0-100 (0 no damage, 100 complete death)
Source text: as §1, §2, §3

[7] = tested on: large crabgrass (Digitaria sanguinalis, DIS); assay: Post-emerge test, large crabgrass; conditions: 250 g ai/ha, 14 days after application, rating scale 0-100 (0 no damage, 100 complete death)
Source text: as §1, §2, §4, §3

[8] = tested on: barnyardgrass (Echinachloa crus-galli, ECC); assay: Post-emerge test, barnyardgrass; conditions: 250 g ai/ha, 14 days after application, rating scale 0-100 (0 no damage, 100 complete death)
Source text: as §1, §2, §4, §3

[9] = tested on: soybean (Glycine max L., var. Pella 86, SOY); assay: Pre-emerge test, crop damage soybean; conditions: pre-emerge, 250 g ai/ha, 14 days after application, rating scale 0-100 (0 no damage, 100 complete death)
Source text: as §1, §2, §3

[10] = tested on: field corn (Zea mays L., var. Dekalb 535, CORN); assay: Pre-emerge test, crop damage field corn; conditions: pre-emerge, 250 g ai/ha, 14 days after application, rating scale 0-100 (0 no damage, 100 complete death)
Source text: as §1, §2, §3

[11] = tested on: common ragweed (Ambrosia artemisiifolia L., AML); assay: Pre-emerge test, common ragweed; conditions: 250 g ai/ha, 14 days after application, rating scale 0-100 (0 no damage, 100 complete death)
Source text: as §1, §2, §3

[12] = tested on: lambsquarters (Chenopodium album, CHA); assay: Pre-emerge test, lambsquarters; conditions: 250 g ai/ha, 14 days after application, rating scale 0-100 (0 no damage, 100 complete death)
Source text: as §1, §2, §3

[13] = tested on: soybean (Glycine max L., var. Pella 86, SOY); assay: Post-emerge test, crop damage soybean; conditions: post-emerge, 250 g ai/ha, 14 days after application, rating scale 0-100 (0 no damage, 100 complete death)
Source text: as §1, §2, §4, §3

[14] = tested on: ivyleaf morningglory (Ipomoea hederacea, IPH); assay: Post-emerge test, ivyleaf morningglory; conditions: 250 g ai/ha, 14 days after application, rating scale 0-100 (0 no damage, 100 complete death)
Source text: as §1, §2, §4, §3

[15] = tested on: sicklepod (Cassia obtusifolia, CAO); assay: Post-emerge test, sicklepod; conditions: 250 g ai/ha, 14 days after application, rating scale 0-100 (0 no damage, 100 complete death)
Source text: as §1, §2, §4, §3

[16] = tested on: wheat (Triticum aestivum); assay: Pre-emerge test, crop damage wheat; conditions: pre-emerge, 250 g ai/ha, 14 days after application, rating scale 0-100 (0 no damage, 100 complete death)
Source text: as §1, §2, §3

[17] = tested on: velvetleaf (Abutilon theophrasti, ABT); assay: Pre-emerge test, velvetleaf; conditions: 250 g ai/ha, 14 days after application, rating scale 0-100 (0 no damage, 100 complete death)
Source text: as §1, §2, §3

[18] = tested on: cocklebur (Xanthium strumariunt, XAS); assay: Post-emerge test, cocklebur; conditions: 250 g ai/ha, 14 days after application, rating scale 0-100 (0 no damage, 100 complete death)
Source text: as §1, §2, §4, §3

[19] = tested on: green foxtail (Setaria viridis, SEV); assay: Post-emerge test, green foxtail; conditions: 250 g ai/ha, 14 days after application, rating scale 0-100 (0 no damage, 100 complete death)
Source text: as §1, §2, §4, §3

[20] = tested on: wheat (Triticum aestivum); assay: Post-emerge test, crop damage wheat; conditions: post-emerge, 250 g ai/ha, 14 days after application, rating scale 0-100 (0 no damage, 100 complete death)
Source text: as §1, §2, §4, §3

[21] = tested on: field corn (Zea mays L., var. Dekalb 535, CORN); assay: Post-emerge test, crop damage field corn; conditions: post-emerge, 250 g ai/ha, 14 days after application, rating scale 0-100 (0 no damage, 100 complete death)
Source text: as §1, §2, §4, §3

[22] = tested on: velvetleaf (Abutilon theophrasti, ABT); assay: Post-emerge test, velvetleaf; conditions: 250 g ai/ha, 14 days after application, rating scale 0-100 (0 no damage, 100 complete death)
Source text: as §1, §2, §4, §3

[23] = tested on: green foxtail (Setaria viridis, SEV); assay: Pre-emerge test, green foxtail; conditions: 250 g ai/ha, 14 days after application, rating scale 0-100 (0 no damage, 100 complete death)
Source text: as §1, §2, §3

[24] = tested on: redroot pigweed (Amaranthus retroflexus, AMR); assay: Post-emerge test, redroot pigweed; conditions: 250 g ai/ha, 14 days after application, rating scale 0-100 (0 no damage, 100 complete death)
Source text: as §1, §2, §4, §3

[25] = tested on: upland rice (Oryza sp., var.Tebonnet, RICE); assay: Post-emerge test, crop damage upland rice; conditions: post-emerge, 250 g ai/ha, 14 days after application, rating scale 0-100 (0 no damage, 100 complete death)
Source text: as §1, §2, §4, §3

[26] = tested on: ivyleaf morningglory (Ipomoea hederacea, IPH); assay: Pre-emerge test, ivyleaf morningglory; conditions: 250 g ai/ha, 14 days after application, rating scale 0-100 (0 no damage, 100 complete death)
Source text: as §1, §2, §3

[27] = tested on: upland rice (Oryza sp., var.Tebonnet, RICE); assay: Pre-emerge test, crop damage upland rice; conditions: pre-emerge, 250 g ai/ha, 14 days after application, rating scale 0-100 (0 no damage, 100 complete death)
Source text: as §1, §2, §3

[28] = tested on: johnsongrass (Sorghum halepense, SOH); assay: Post-emerge test, johnsongrass; conditions: 250 g ai/ha, 14 days after application, rating scale 0-100 (0 no damage, 100 complete death)
Source text: as §1, §2, §4, §3

[29] = tested on: cocklebur (Xanthium strumariunt, XAS); assay: Pre-emerge test, cocklebur; conditions: 250 g ai/ha, 14 days after application, rating scale 0-100 (0 no damage, 100 complete death)
Source text: as §1, §2, §3

[30] = tested on: lambsquarters (Chenopodium album, CHA); assay: Post-emerge test, lambsquarters; conditions: 250 g ai/ha, 14 days after application, rating scale 0-100 (0 no damage, 100 complete death)
Source text: as §1, §2, §4, §3

SMILES	Pre-emerge Herbicidal Activity ECC (phytotoxicity rating) [1]	Pre-emerge Herbicidal Activity SOH (phytotoxicity rating) [2]	Pre-emerge Herbicidal Activity DIS (phytotoxicity rating) [3]	Pre-emerge Herbicidal Activity AMR (phytotoxicity rating) [4]	Post-emerge Herbicidal Activity AML (phytotoxicity rating) [5]	Pre-emerge Herbicidal Activity CAO (phytotoxicity rating) [6]	Post-emerge Herbicidal Activity DIS (phytotoxicity rating) [7]	Post-emerge Herbicidal Activity ECC (phytotoxicity rating) [8]	Pre-emerge crop damage SOY (phytotoxicity rating) [9]	Pre-emerge crop damage CORN (phytotoxicity rating) [10]	Pre-emerge Herbicidal Activity AML (phytotoxicity rating) [11]	Pre-emerge Herbicidal Activity CHA (phytotoxicity rating) [12]	Post-emerge crop damage SOY (phytotoxicity rating) [13]	Post-emerge Herbicidal Activity IPH (phytotoxicity rating) [14]	Post-emerge Herbicidal Activity CAO (phytotoxicity rating) [15]	Pre-emerge crop damage WHEAT (phytotoxicity rating) [16]	Pre-emerge Herbicidal Activity ABT (phytotoxicity rating) [17]	Post-emerge Herbicidal Activity XAS (phytotoxicity rating) [18]	Post-emerge Herbicidal Activity SEV (phytotoxicity rating) [19]	Post-emerge crop damage WHEAT (phytotoxicity rating) [20]	further results
CC1Oc2cc(F)c(-c3nn(C)c(C(F)(F)F)c3Cl)c3c2N(C1=O)C(C)C(=O)N3 (mixture of isomers) [1-50]	99	100	99	100	70	99	70	99	60	85	100	100	75	100	75	25	100	100	70	35	Post-emerge crop damage CORN (phytotoxicity rating) [21]: 20; Post-emerge Herbicidal Activity ABT (phytotoxicity rating) [22]: 100; Pre-emerge Herbicidal Activity SEV (phytotoxicity rating) [23]: 100; Post-emerge Herbicidal Activity AMR (phytotoxicity rating) [24]: 100; Post-emerge crop damage RICE (phytotoxicity rating) [25]: 65; Pre-emerge Herbicidal Activity IPH (phytotoxicity rating) [26]: 90; Pre-emerge crop damage RICE (phytotoxicity rating) [27]: 50; Post-emerge Herbicidal Activity SOH (phytotoxicity rating) [28]: 55; Pre-emerge Herbicidal Activity XAS (phytotoxicity rating) [29]: 75; Post-emerge Herbicidal Activity CHA (phytotoxicity rating) [30]: 100
CC1Oc2cc(F)c(-c3nn(C)c(C(F)(F)F)c3Cl)c3c2N(C1=O)C(C)C(=O)N3 (mixture of isomers) [1-51]	100	100	100	100	85	100	90	100	65	70	100	100	60	100	100	60	100	100	100	60	Post-emerge crop damage CORN (phytotoxicity rating) [21]: 50; Post-emerge Herbicidal Activity ABT (phytotoxicity rating) [22]: 100; Pre-emerge Herbicidal Activity SEV (phytotoxicity rating) [23]: 100; Post-emerge Herbicidal Activity AMR (phytotoxicity rating) [24]: 100; Post-emerge crop damage RICE (phytotoxicity rating) [25]: 75; Pre-emerge Herbicidal Activity IPH (phytotoxicity rating) [26]: 98; Pre-emerge crop damage RICE (phytotoxicity rating) [27]: 70; Post-emerge Herbicidal Activity SOH (phytotoxicity rating) [28]: 80; Pre-emerge Herbicidal Activity XAS (phytotoxicity rating) [29]: 99; Post-emerge Herbicidal Activity CHA (phytotoxicity rating) [30]: 100
CC1Oc2cc(F)c(-c3nn(C)c(C(F)(F)F)c3Cl)c3c2N(C1=O)C(C(C)C)C(=O)N3 (mixture of isomers) [1-53]	95	90	98	100	75	100	0	70	50	25	95	100	20	100	50	15	100	100	60	10	Post-emerge crop damage CORN (phytotoxicity rating) [21]: 5; Post-emerge Herbicidal Activity ABT (phytotoxicity rating) [22]: 100; Pre-emerge Herbicidal Activity SEV (phytotoxicity rating) [23]: 99; Post-emerge Herbicidal Activity AMR (phytotoxicity rating) [24]: 100; Post-emerge crop damage RICE (phytotoxicity rating) [25]: 0; Pre-emerge Herbicidal Activity IPH (phytotoxicity rating) [26]: 95; Pre-emerge crop damage RICE (phytotoxicity rating) [27]: 5; Post-emerge Herbicidal Activity SOH (phytotoxicity rating) [28]: 0; Pre-emerge Herbicidal Activity XAS (phytotoxicity rating) [29]: 100; Post-emerge Herbicidal Activity CHA (phytotoxicity rating) [30]: 100
